Results: patent publication US8022180B2, “Method for preventing and treating Alzheimer's disease” (Affiris Forschungs-und Entwicklungs GmbH, priority 2004, dated 2011)
Entries after “also recorded” stand apart in the source; their conditions may differ. Where a SMILES comes first, the peptide text is derived from it. Where no end group is shown, it is not given here. [ ]: non-standard residue; d: D form. Tle = CC(C)(C)[C@H](N)C(=O)O

Tested on: monoclonal antibody specific for the natural N-terminal Aβ42 sequence DAEFRH
Assay: Inhibition assay: mimotope peptides compete with plate-bound DAEFRH-BSA for recognition by the biotinylated monoclonal antibody (ELISA)
Format: binding, mice
Set-up: key to inhibition (s/m/—): s: strong inhibition; m: moderate inhibition; —: no inhibition
Settings: for inhibition of epitope recognition by the monoclonal antibody (in words): FIGS. 2-9; for Inhibitory capacity of mimotopes: summary Tables 1 and 2, in words; for IC50 (inhibition of monoclonal antibody binding to the original epitope): competition ELISA, plate-bound DAEFRH-BSA, peptides 20 min at 37° C.; for inhibition (s/m/—): peptides of the new screening round and 5mers with non natural amino acids
Excerpt: 1.: Generation of Monoclonal Antibodies (mAb) to Detect Aβ42-Derived Peptide Species with Free N-Terminus (Free Aspartic Acid at the N-Terminus)
Mice are vaccinated with the 6mer peptide DAEFRH (SEQ ID NO: 26) (natural N-terminal Aβ42 sequence) linked to the protein bovine serum albumin BSA (to make use of the hapten-carrier-effect), emulsified in CFA (first injection) and IFA (booster injections). DAEFRH (SEQ ID NO: 26)-peptide-specific, antibody-producing hybridomas are detected by ELISA (DAEFRH (SEQ ID NO: 26)-peptide-coated ELISA plates).
(§1) FIGS. 2 and 3 describe the results of inhibition assays performed with mimotope peptides included in and obtained from the 5 libraries (as described). The mimotope peptides compete with the original epitope for recognition by the monoclonal antibody. Original epitope and mimotope peptides contain an additional C at the C-terminus for coupling to a protein carrier (if desired).
(§2) After blocking with PBS/BSA 1% (200 μl/well, 12 h, 4° C.), the plates are washed 3× times with PBS/Tween. Then, biotinylated monoclonal antibody (1:2000, 50 μl/well) and peptides (50 μl/well) at 50, 5, 0.5, 0.05, 0.005, and 0.0005 μg/ml are added for 20 min. at 37° C. The plates are washed 3× times with PBS/Tween and are incubated with horseradish peroxidase (HRP)-labeled streptavidin (100 μl/well, 30 min, RT). The plates are washed 5× times with PBS/Tween and are incubated with ABTS+H2O2 (0.1% w/v, 10 to 45 min) and the reaction is stopped with citric acid followed by photometric evaluation (wavelength 405 nm).
as §1, with “4” for “2”, “5” for “3”, “C-terminus (position 7)” for “C-terminus”
as §2, with “different concentrations” for “50, 5, 0.5, 0.05, 0.005, and 0.0005 μg/ml”
as §1, with “6 to 8” for “2 and 3”, “2” for “5”, “described above).” for “described).”, “C-terminus (position 7 or position 8, respectively)” for “C-terminus”

Row | Compound | inhibition of epitope recognition by the monoclonal antibody (in words) | Inhibitory capacity of mimotopes | IC50 (inhibition of monoclonal antibody binding to the original epitope) | inhibition (s/m/—) | concentration at which the peptide is only inhibitory (only inhibitory at a (relatively) high concentration) [µg/mL]
1 | CC[C@H](C)[C@H](NC(=O)[C@H](CCCNC(=N)N)NC(=O)[C@H](CC(C)C)NC(=O)[C@H](CCC(=O)O)NC(=O)[C@H](CCCNC(=N)N)NC(=O)[C@@H](N)CC(=O)O)C(=O)N[C@@H](CS)C(=O)O [Peptide 1235, DRELRI] | block epitope recognition | strong |  |  | 
2 | CC[C@H](C)[C@H](NC(=O)[C@H](CCCCN)NC(=O)[C@H](CC(C)C)NC(=O)[C@H](CCC(=O)O)NC(=O)[C@H](CCCCN)NC(=O)[C@@H](N)CC(=O)O)C(=O)N[C@@H](CS)C(=O)O [Peptide 1236, DKELKI] | block epitope recognition | weak |  |  | 
3 | CC[C@H](C)[C@H](NC(=O)[C@H](CCCCN)NC(=O)[C@H](CC(C)C)NC(=O)[C@H](CCC(=O)O)NC(=O)[C@H](CCCNC(=N)N)NC(=O)[C@@H](N)CC(=O)O)C(=O)N[C@@H](CS)C(=O)O [Peptide 1237, DRELKI] | block epitope recognition | weak |  |  | 
4 | N=C(N)NCCC[C@H](NC(=O)[C@H](Cc1ccccc1)NC(=O)[C@H](CCC(=O)O)NC(=O)[C@H](Cc1ccc(O)cc1)NC(=O)[C@@H](N)CCC(=O)O)C(=O)NCC(=O)N[C@@H](CS)C(=O)O [Peptide 1239, EYEFRG] | block epitope recognition | intermediate | more than 0.5 μg/ml |  | 
5 | C[C@H](NC(=O)[C@H](CC(=O)O)NC(=O)[C@H](CCCNC(=N)N)NC(=O)[C@H](Cc1ccccc1)NC(=O)[C@H](CCC(=O)O)NC(=O)[C@H](Cc1c[nH]c2ccccc12)NC(=O)[C@@H](N)CC(=O)O)C(=O)N[C@@H](CS)C(=O)O [Peptide 1241, DWEFRDA] | block epitope recognition | strong |  |  | 
6 | CC[C@H](C)[C@H](NC(=O)[C@H](CCCNC(=N)N)NC(=O)[C@H](CC(C)C)NC(=O)[C@H](CCC(=O)O)NC(=O)[C@H](CCCCN)NC(=O)[C@@H](N)CC(=O)O)C(=O)N[C@@H](CS)C(=O)O [Peptide 3001, DKELRI] | block epitope recognition | strong |  |  | 
7 | CC[C@H](C)[C@H](NC(=O)[C@H](CCCNC(=N)N)NC(=O)[C@H](CC(C)C)NC(=O)[C@H](CCC(=O)O)NC(=O)[C@H](Cc1c[nH]c2ccccc12)NC(=O)[C@@H](N)CC(=O)O)C(=O)N[C@@H](CS)C(=O)O [Peptide 3002, DWELRI] | block epitope recognition | intermediate |  |  | 
8 | C[C@H](NC(=O)[C@@H](N)Cc1ccc(O)cc1)C(=O)N[C@@H](CCC(=O)O)C(=O)N[C@@H](Cc1ccccc1)C(=O)N[C@@H](CCCNC(=N)N)C(=O)NCC(=O)N[C@@H](CS)C(=O)O [Peptide 3005, YAEFRG] | block epitope recognition | intermediate |  |  | 
9 | C[C@H](NC(=O)[C@@H](N)CCC(=O)O)C(=O)N[C@@H](CCC(=O)O)C(=O)N[C@@H](Cc1ccccc1)C(=O)N[C@@H](CCCNC(=N)N)C(=O)NCC(=O)N[C@@H](CS)C(=O)O [Peptide 3006, EAEFRG] | block epitope recognition | strong |  |  | 
10 | N=C(N)NCCC[C@H](NC(=O)[C@H](Cc1ccccc1)NC(=O)[C@H](CCC(=O)O)NC(=O)[C@H](Cc1ccc(O)cc1)NC(=O)[C@@H](N)CC(=O)O)C(=O)NCC(=O)N[C@@H](CS)C(=O)O [Peptide 3007, DYEFRG] | block epitope recognition | strong |  |  | 
11 | CC(C)C[C@H](NC(=O)[C@@H](N)CCC(=O)O)C(=O)N[C@@H](CCC(=O)O)C(=O)N[C@@H](Cc1ccccc1)C(=O)N[C@@H](CCCNC(=N)N)C(=O)NCC(=O)N[C@@H](CS)C(=O)O [Peptide 3008, ELEFRG] |  | weak |  |  | 
12 | N=C(N)NCCC[C@H](NC(=O)[C@H](Cc1ccccc1)NC(=O)[C@H](CCC(=O)O)NC(=O)[C@H](Cc1ccccc1)NC(=O)[C@@H](N)CO)C(=O)NCC(=O)N[C@@H](CS)C(=O)O [Peptide 3009, SFEFRG] |  | weak |  |  | 
13 | C[C@@H](O)[C@H](NC(=O)[C@H](CCCNC(=N)N)NC(=O)[C@H](Cc1ccccc1)NC(=O)[C@H](CCC(=O)O)NC(=O)[C@H](Cc1c[nH]c2ccccc12)NC(=O)[C@@H](N)CO)C(=O)N[C@@H](CS)C(=O)O [Peptide 4002, SWEFRT] | block epitope recognition | strong | less than 0.4 μg/ml |  | 
14 | CCCC[C@H](NC(=O)[C@H](CCC(=O)O)NC(=O)[C@H](CCCCN)NC(=O)[C@@H](N)CC(=O)O)C(=O)N[C@@H](CCCNC(=N)N)C(=O)N[C@@H](CS)C(=O)O [Peptide 4062, DKE(Nle)R] (HELM PEPTIDE1{D.K.E.[Nle].R.C}$$$$V2.0) | block epitope recognition |  |  | m | 
15 | CCC[C@H](NC(=O)[C@H](CCC(=O)O)NC(=O)[C@H](CCCCN)NC(=O)[C@@H](N)CC(=O)O)C(=O)N[C@@H](CCCNC(=N)N)C(=O)N[C@@H](CS)C(=O)O [Peptide 4063, DKE(Nva)R] (HELM PEPTIDE1{D.K.E.[Nva].R.C}$$$$V2.0) | block epitope recognition |  |  | m | 
16 | N=C(N)NCCC[C@H](NC(=O)[C@H](CC1CCCCC1)NC(=O)[C@H](CCC(=O)O)NC(=O)[C@H](CCCCN)NC(=O)[C@@H](N)CC(=O)O)C(=O)N[C@@H](CS)C(=O)O [Peptide 4064, DKEC(Cha)R] | block epitope recognition |  |  | m | 
17 | ATYAYWN [Peptide 4038] | not inhibitory at the concentrations tested |  |  | — | 
18 | DAEFRH (not fully specified (C-terminus); listed as Homo sapiens) [Peptide 1737, reference compound] | inhibits recognition by the monoclonal antibody; also recorded: can successfully compete |  |  |  | 
19 | DAEFRWP [Peptide 4011] | strongly block epitope recognition |  |  | s | 
20 | DIGWRG [Peptide 3011] | not inhibitory at the concentrations tested | none |  |  | 
21 | DISFRG [Peptide 3010] | not inhibitory at the concentrations tested | none |  |  | 
22 | DKE(tBuGly)R (DKE[Tle]R) [Peptide 4061] | not inhibitory at the concentrations tested |  |  | — | 
23 | DNEFRSP [Peptide 4012] | moderately inhibit binding |  |  | s | 
24 | GAEFRFT [Peptide 4014] | moderately inhibit binding |  |  | m | 
25 | GREFRN [Peptide 4003] | block epitope recognition | weak |  |  | 10
